Data taken from patent US11897918B2, “Compositions and methods to increase production” (priority 2014, dated 2024).

Legend:
[1] = test system: influenza in MDCK 33016PF cells; assay type: cell-based
[2] = test system: IP10 and IFNB1; assay type: cell-based
[3] = test system: cellular cholesterol; experiment: Total cellular cholesterol (Amplex Red); assay type: cell-based; details: normalized to DMSO
Description: Possible effects of BYF589 as well as various enzyme inhibitors of the pathway on the cell viability and total cellular cholesterol levels were examined. Tested samples included DMSO, BYF589 (1 μM), MEV (100 μM), FTI (0.5 μM), ZA (1 μM) and GTI (0.5 μM).
Free cholesterol is oxidized by cholesterol oxidase to form a cholesterol ketone and H2O2, which then reacts with Amplex Red+HRP to produce the fluorescent product resorufin.

[4] = test system: MDCK cells; experiment: Cell viability, VI-CELL trypan blue exclusion; assay type: cell-based; details: monitored up to 60 hrs
Description: Cell viability assays were performed using MDCK cells treated with 1 uM sulphonamide or DMSO control. Cell viability was monitored over time up to 60 hrs using a VI-CELL machine (Beckman Coulter)(cell viability measured based on trypan blue exclusion). The sulphonamide analog used herein is not a marketed drug, therefore toxicity was conducted to identify cell viability over the course of incubation at the highest tested concentration of 10 μM and 60 hours of contact. […] At least 91% viability is detected in cells treated with sulphonamide.

[5] = test system: H3N2 strain IVR-165; assay type: cell-based, influenza H3N2; details: concentrations as low as 0.05 or even 0.01 μM
[6] = test system: B/Massachusetts/2/2012 (low-expressing); experiment: ambr15 mini-bioreactor and shake flask comparison, B strain; assay type: cell-based, influenza B; details: CDM and DM134 media, shake flasks and 15 ml bioreactors
Description: The two lead compounds were further tested in the commercially available small-scale bioreactor system, ambr15™ (TAP Biosystems). The ambr15 system mimics the characteristics of classical bioreactors at microscale (10-15 ml), controlled by an automated workstation, which enables the rapid evaluation of multiple bioreactor cultures at microscale.
To test both lead compounds were tested side-by-side under controlled conditions, with two infection media formulations (DM134 and CDM) and two flu strains, A/Victoria/361/2011 (IVR-165) (high-expressing) and B/Massachusetts/2/2012 (low-expressing). The infection parameters used in the experiment were as follows: seeding density was 1.0×10^6 cells/ml or 2.5×10^6 cells/mL; pH was 7.1+/−0.02 (pH control by dual control with 0.05N NaOH and CO2 gas); DO was 50% (range 50-80%), controlled by O2 gas; agitation was 1000 rpm (local control); temperature was 34.0° C., locally monitored with bioreactor controller probe; vessel type was Spargeless, extended temperature vessels; and, aeration rate during run was 1 mL/min.
The quantification of HA was carried out by ELISA then was subsequently confirmed by HPLC. It was also shown that AFZ077 was able to boost HA yield in the DM134 medium with both low (1×10^6 per mL) and high (2.5×10^6 per mL) infection cell densities in this system. […] Overall, greater enhancement effect seen for low-expressing strains. […]

[7] = test system: virus-infected host cell culture; assay type: cell-based, influenza; details: versus control without compound
[8] = 0 and 60 hr, mass spec
[9] = test system: MDCK 33016PF cells; details: 24 hours; BYF589 1 μM, MEV 100 μM, FTI 0.5 μM, ZA 1 μM, GTI 0.5 μM

O=C(O)C[C@H](O)C[C@H](O)/C=C/c1c(C2CC2)nc2ccccc2c1-c1ccc(F)cc1 [Compound G, (3R, 5S, 6E)-7-[2-cyclopropyl-4-(4-fluorophenyl)-quinolin-3-yl)-3,5-dihydroxyhept-6-enoic acid]
HA yield enhancement in multiple strains and subtypes of influenza [1]: at least 2 fold
delay time of gene induction (measured at peak) ([2]; both genes, versus absence of compound): at least two hours
induction of IFNb and IP10 ([2]; virus-infected MDCK cells, preliminary qRT-PCR data): delayed/suppressed induction
cellular cholesterol levels, compound alone [3]: lower cholesterol
impact on cell viability [4]: Neither sulphonamide nor pitavastatin had a negative impact on cell viability
increase in HA yield [5]: 3 fold
HA yield enhancement, low-expressing B strain [6]: boosts HA yield
increase in HA yield at 24 hours, compound added at T=2, 4 [7]: no significant enhancement in HA yield
increase in HA yield at 24 hours, compound added at T=6 [7]: no significant enhancement in HA yield
increase in HA yield at 24 hours, compound added at time of infection (T=0) [7]: approximately 4 fold
loss of compound in media or media+MDCK cells [8]: No loss of compounds was observed
effect on cell viability [9]: no negative effect on cell viability
